# ChEMBL document CHEMBL3885881, “DrugMatrix”
# Organism: Rattus norvegicus
# Experiment: DrugMatrix - Regimen: Daily Repeat
# Type: toxicity, organism-based, Sprague-Dawley
# Set-up: regimen Daily Repeat, gender Male, age 6-8 weeks
# Details: in vivo, po, route oral GAVAGE, vehicle 100 % WATER; for ABSOLUTE BASOPHIL / ABSOLUTE EOSINOPHIL / ABSOLUTE LYMPHOCYTE / ABSOLUTE MONOCYTE / ABSOLUTE SEGMENTED NEUTROPHIL / BASOPHIL / EOSINOPHIL / ERYTHROCYTE COUNT / HEMATOCRIT / HEMOGLOBIN / LEUKOCYTE COUNT / LYMPHOCYTE / MEAN CORPUSCULAR HEMOGLOBIN / MEAN CORPUSCULAR HEMOGLOBIN CONCENTRATION / MEAN CORPUSCULAR VOLUME / MONOCYTE / NEUTROPHIL / NUCLEATED RED BLOOD CELLS / PLATELET COUNT: tissue Blood; for ALANINE AMINOTRANSFERASE / ALBUMIN / ALKALINE PHOSPHATASE / ASPARTATE AMINOTRANSFERASE / BLOOD UREA NITROGEN / CARBON DIOXIDE / CHLORIDE / CHOLESTEROL / CREATINE PHOSPHOKINASE / CREATININE / GLUCOSE / LACTATE DEHYDROGENASE / LIPASE / PHOSPHORUS / POTASSIUM / SODIUM / TOTAL BILIRUBIN / TOTAL PROTEIN / URIC ACID: tissue Plasma
# [1] = 0 mg/kg, 72 h, dose level Control, time 3 day
# [2] = 0 mg/kg, 120 h, dose level Control, time 5 day
# [3] = 25 mg/kg, 72 h, dose level High, time 3 day
smiles,measurement,setting,value
O=P1(N(CCCl)CCCl)NCCCO1 (centres undefined) [CYCLOPHOSPHAMIDE ANHYDROUS],ABSOLUTE BASOPHIL,[1],0 CELLS/uL
same,ABSOLUTE EOSINOPHIL,[1],32.5 CELLS/uL
same,ABSOLUTE LYMPHOCYTE,[1],9305.83 CELLS/uL
same,ABSOLUTE MONOCYTE,[1],43.83 CELLS/uL
same,ABSOLUTE SEGMENTED NEUTROPHIL,[1],817.83 CELLS/uL
same,BASOPHIL,[1],0%
same,EOSINOPHIL,[1],0.33%
same,ERYTHROCYTE COUNT,[1],5.38 x10E6/uL
same,HEMATOCRIT,[1],33.63%
same,HEMOGLOBIN,[1],13.17 G/DL
same,LEUKOCYTE COUNT,[1],10.2 x10E3/uL
same,LYMPHOCYTE,[1],91.17%
same,MEAN CORPUSCULAR HEMOGLOBIN,[1],24.5 pg
same,MEAN CORPUSCULAR HEMOGLOBIN CONCENTRATION,[1],39.13 G/DL
same,MEAN CORPUSCULAR VOLUME,[1],62.53 fL
same,MONOCYTE,[1],0.5%
same,NEUTROPHIL,[1],8%
same,NUCLEATED RED BLOOD CELLS,[1],0.17 /100WBC
same,PLATELET COUNT,[1],858 x10E3/uL
same,ALANINE AMINOTRANSFERASE,[1],55.67 u/L
same,ALBUMIN,[1],4.07 G/DL
same,ALKALINE PHOSPHATASE,[1],337 u/L
same,ASPARTATE AMINOTRANSFERASE,[1],84 u/L
same,BLOOD UREA NITROGEN,[1],13.17 mg/dL
same,CARBON DIOXIDE,[1],34.17 mmol/L
same,CHLORIDE,[1],99.33 MEQ/L
same,CHOLESTEROL,[1],78.83 mg/dL
same,CREATINE PHOSPHOKINASE,[1],576.83 u/L
same,CREATININE,[1],0.17 mg/dL
same,GLUCOSE,[1],152.67 mg/dL
same,LACTATE DEHYDROGENASE,[1],147.83 u/L
same,LIPASE,[1],9.5 u/L
same,PHOSPHORUS,[1],10.78 mg/dL
same,POTASSIUM,[1],6.34 MEQ/L
same,SODIUM,[1],144.12 MEQ/L
same,TOTAL BILIRUBIN,[1],0.18 mg/dL
same,TOTAL PROTEIN,[1],6.08 G/DL
same,URIC ACID,[1],0.65 mg/dL
same,ABSOLUTE BASOPHIL,[2],0 CELLS/uL
same,ABSOLUTE EOSINOPHIL,[2],31.17 CELLS/uL
same,ABSOLUTE LYMPHOCYTE,[2],7918.33 CELLS/uL
same,ABSOLUTE MONOCYTE,[2],58.33 CELLS/uL
same,ABSOLUTE SEGMENTED NEUTROPHIL,[2],725.5 CELLS/uL
same,BASOPHIL,[2],0%
same,EOSINOPHIL,[2],0.33%
same,ERYTHROCYTE COUNT,[2],5.32 x10E6/uL
same,HEMATOCRIT,[2],33.53%
same,HEMOGLOBIN,[2],13.17 G/DL
same,LEUKOCYTE COUNT,[2],8.73 x10E3/uL
same,LYMPHOCYTE,[2],90.33%
same,MEAN CORPUSCULAR HEMOGLOBIN,[2],24.82 pg
same,MEAN CORPUSCULAR HEMOGLOBIN CONCENTRATION,[2],39.33 G/DL
same,MEAN CORPUSCULAR VOLUME,[2],63.12 fL
same,MONOCYTE,[2],0.67%
same,NEUTROPHIL,[2],8.67%
same,NUCLEATED RED BLOOD CELLS,[2],0 /100WBC
same,PLATELET COUNT,[2],1144.83 x10E3/uL
same,ALANINE AMINOTRANSFERASE,[2],60.5 u/L
same,ALBUMIN,[2],3.97 G/DL
same,ALKALINE PHOSPHATASE,[2],343.17 u/L
same,ASPARTATE AMINOTRANSFERASE,[2],80.83 u/L
same,BLOOD UREA NITROGEN,[2],15 mg/dL
same,CARBON DIOXIDE,[2],31 mmol/L
same,CHLORIDE,[2],99.75 MEQ/L
same,CHOLESTEROL,[2],71.5 mg/dL
same,CREATINE PHOSPHOKINASE,[2],237.17 u/L
same,CREATININE,[2],0.17 mg/dL
same,GLUCOSE,[2],137 mg/dL
same,LACTATE DEHYDROGENASE,[2],146.17 u/L
same,LIPASE,[2],11.5 u/L
same,PHOSPHORUS,[2],10.13 mg/dL
same,POTASSIUM,[2],6 MEQ/L
same,SODIUM,[2],145 MEQ/L
same,TOTAL BILIRUBIN,[2],0.13 mg/dL
same,TOTAL PROTEIN,[2],5.82 G/DL
same,URIC ACID,[2],0.62 mg/dL
same,ABSOLUTE BASOPHIL,[3],0 CELLS/uL
same,ABSOLUTE EOSINOPHIL,[3],0 CELLS/uL
same,ABSOLUTE LYMPHOCYTE,[3],2636 CELLS/uL
same,ABSOLUTE MONOCYTE,[3],11 CELLS/uL
same,ABSOLUTE SEGMENTED NEUTROPHIL,[3],486.33 CELLS/uL
same,BASOPHIL,[3],0%
same,EOSINOPHIL,[3],0%
same,ERYTHROCYTE COUNT,[3],5 x10E6/uL
same,HEMATOCRIT,[3],30.93%
same,HEMOGLOBIN,[3],12.33 G/DL
same,LEUKOCYTE COUNT,[3],3.13 x10E3/uL
same,LYMPHOCYTE,[3],83.67%
same,MEAN CORPUSCULAR HEMOGLOBIN,[3],24.73 pg
same,MEAN CORPUSCULAR HEMOGLOBIN CONCENTRATION,[3],39.87 G/DL
same,MEAN CORPUSCULAR VOLUME,[3],61.97 fL
same,MONOCYTE,[3],0.33%
same,NEUTROPHIL,[3],16%
same,NUCLEATED RED BLOOD CELLS,[3],0 /100WBC
same,PLATELET COUNT,[3],636 x10E3/uL
same,ALANINE AMINOTRANSFERASE,[3],49.33 u/L
same,ALBUMIN,[3],4.03 G/DL
same,ALKALINE PHOSPHATASE,[3],291 u/L
same,ASPARTATE AMINOTRANSFERASE,[3],68 u/L
same,BLOOD UREA NITROGEN,[3],15.67 mg/dL
same,CARBON DIOXIDE,[3],34 mmol/L
same,CHLORIDE,[3],99.5 MEQ/L
same,CHOLESTEROL,[3],84.67 mg/dL
same,CREATINE PHOSPHOKINASE,[3],160 u/L
same,CREATININE,[3],0.13 mg/dL
same,GLUCOSE,[3],147 mg/dL
same,LACTATE DEHYDROGENASE,[3],134 u/L
same,LIPASE,[3],9.67 u/L
same,PHOSPHORUS,[3],10.63 mg/dL
same,POTASSIUM,[3],5.82 MEQ/L
same,SODIUM,[3],144.75 MEQ/L
same,TOTAL BILIRUBIN,[3],0.17 mg/dL
same,TOTAL PROTEIN,[3],5.77 G/DL
same,URIC ACID,[3],0.33 mg/dL
